Data on 5 compounds can be found in ChEMBL document CHEMBL1817626, “The structure-activity relationship of urea derivatives as anti-tuberculosis agents” (Bioorg Med Chem, 2011).

The subject of one assay is Pseudomonas aeruginosa. Kind of assay: Antibacterial activity against Pseudomonas aeruginosa. Type of assay: functional.
Another assay has as its system Bacillus anthracis. As to the kind of experiment: microbe, parasite or virus in culture.
In assay [1] the test system is Mycolicibacterium smegmatis. As to the kind of experiment: microbe, parasite or virus in culture. The following applies: str. MC2 155, 168 h.
Assay [2] relates to Escherichia coli. Kind of assay: Antibacterial activity against Escherichia coli […] TolC. Type of assay: functional.
The target of assay [3] is T1, Hydrolase, alpha/beta hydrolase fold family (Mycobacterium tuberculosis, UniProt O69638).
T1 sequence (O69638 whole entry): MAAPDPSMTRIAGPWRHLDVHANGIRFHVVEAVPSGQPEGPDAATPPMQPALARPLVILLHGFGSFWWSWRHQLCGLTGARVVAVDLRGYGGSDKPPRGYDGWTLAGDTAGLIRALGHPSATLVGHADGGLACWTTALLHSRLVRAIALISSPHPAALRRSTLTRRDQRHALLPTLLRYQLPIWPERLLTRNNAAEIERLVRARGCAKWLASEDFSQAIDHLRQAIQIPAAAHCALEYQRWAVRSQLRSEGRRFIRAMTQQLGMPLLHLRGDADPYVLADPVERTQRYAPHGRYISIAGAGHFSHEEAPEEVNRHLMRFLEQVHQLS
As to the kind of experiment: Inhibition of Mycobacterium tuberculosis recombinant EphE expressed in Escherichia coli BL21 using CMNPC as substrate after 30 mins by fluorescent assay relative to control.

Assay [4] deals with Mycobacterium tuberculosis. As to the kind of experiment: microbe, parasite or virus in culture. The following applies: H37Rv, 168 h.
Another assay concerns Enterococcus faecalis. As to the kind of experiment: Antibacterial activity against Enterococcus faecalis. Type of assay: functional.
A further assay deals with Klebsiella pneumoniae. As to the kind of experiment: Antibacterial activity against Klebsiella pneumoniae. It is filed as functional.
Assay [5] deals with Escherichia coli. As to the kind of experiment: Antibacterial activity against Escherichia coli K12. It is filed as functional. Conditions: K-12.
Assay [6] concerns the target T2, Epoxide hydrolase B (Mycobacterium tuberculosis) (UniProt P95276).
T2 sequence (whole entry): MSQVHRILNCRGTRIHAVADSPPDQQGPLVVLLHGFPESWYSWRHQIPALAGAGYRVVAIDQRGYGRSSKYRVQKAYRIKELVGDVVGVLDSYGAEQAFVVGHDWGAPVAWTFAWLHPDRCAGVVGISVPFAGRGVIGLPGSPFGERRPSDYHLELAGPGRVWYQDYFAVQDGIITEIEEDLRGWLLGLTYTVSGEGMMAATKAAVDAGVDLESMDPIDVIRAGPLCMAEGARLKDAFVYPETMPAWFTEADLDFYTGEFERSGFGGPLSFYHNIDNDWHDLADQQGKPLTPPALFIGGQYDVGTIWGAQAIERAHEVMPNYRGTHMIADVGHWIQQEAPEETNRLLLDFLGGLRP
Kind of assay: Inhibition of Mycobacterium tuberculosis recombinant EphB expressed in Escherichia coli BL21 using CMNPC as substrate at 10 nM after 30 mins by fluorescent assay relative to control.

The test system of the next assay is Enterococcus faecium. Kind of assay: Antibacterial activity against Enterococcus faecium. Type of assay: functional.
The next assay concerns Staphylococcus aureus. As to the kind of experiment: Antibacterial activity against Staphylococcus aureus. It is filed as functional.
The target in assay [7] is T3, Bifunctional epoxide hydrolase 2 (Homo sapiens, UniProt P34913).
T3 sequence (P34913 whole entry): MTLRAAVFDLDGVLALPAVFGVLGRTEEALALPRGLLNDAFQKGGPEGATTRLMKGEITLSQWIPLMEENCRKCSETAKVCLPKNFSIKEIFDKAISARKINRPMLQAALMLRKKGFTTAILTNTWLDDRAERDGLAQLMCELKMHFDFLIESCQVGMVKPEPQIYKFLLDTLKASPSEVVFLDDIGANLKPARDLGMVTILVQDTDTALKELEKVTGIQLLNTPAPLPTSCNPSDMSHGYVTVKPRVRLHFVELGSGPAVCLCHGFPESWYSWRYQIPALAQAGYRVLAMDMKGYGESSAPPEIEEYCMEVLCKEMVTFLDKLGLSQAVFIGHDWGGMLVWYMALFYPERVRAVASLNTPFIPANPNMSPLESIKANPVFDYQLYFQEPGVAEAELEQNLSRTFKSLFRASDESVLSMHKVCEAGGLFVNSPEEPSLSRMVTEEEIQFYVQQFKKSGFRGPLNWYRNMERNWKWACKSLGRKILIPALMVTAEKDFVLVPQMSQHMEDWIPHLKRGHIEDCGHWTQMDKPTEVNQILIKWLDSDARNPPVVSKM
As to the kind of experiment: Inhibition of human recombinant soluble epoxide hydrolase using CMNPC as substrate after 10 mins by fluorescent assay.

The next assay concerns the target T4, Epoxide hydrolase B (Mycobacterium tuberculosis, UniProt P95276).
T4 sequence (P95276 whole entry): T2 sequence (whole entry)
Kind of assay: Inhibition of Mycobacterium tuberculosis recombinant EphB expressed in Escherichia coli BL21 using CMNPC as substrate after 30 mins by fluorescent assay relative to control.

Assay [8] has as its target T5, Hydrolase, alpha/beta hydrolase fold family (Mycobacterium tuberculosis) (UniProt O69638).
T5 sequence (whole entry): T1 sequence (O69638 whole entry)
Kind of assay: Inhibition of Mycobacterium tuberculosis recombinant EphE expressed in Escherichia coli BL21 using CMNPC as substrate at 10 nM after 30 mins by fluorescent assay relative to control.

The subject of another assay is Vero. As to the kind of experiment: Cytotoxicity against african green monkey Vero cells after 72 hrs by MTT assay. Type of assay: cell-based. Conditions: Chlorocebus sabaeus. A general note: Formazan colour is commonly taken as a measure of viable cells.

pIC50: −log10 of the molar value. In brackets after ≈: the same amount, converted by molar mass. Activity calls are given as the source filed them. No cut-off for these calls is given here.

What is called pIC50 is the negative decadic logarithm of the IC50, by convention in mol/L. Usually inhibition stands for the change of the read-out against control, counted positive when it falls. As to `CC(C)CCOc1ccc(NC(=S)Nc2ccc(OCCC(C)C)cc2)cc1` [TIOCARLIDE], the MIC against Pseudomonas aeruginosa is over 200 µg/mL; in the assay with Bacillus anthracis, over 200 µg/mL; in assay [1] it was over 200 µg/mL; against Escherichia coli [2], over 200 µg/mL; in [4] it was 2.5 µg/mL (≈ 6.24 µM); against Enterococcus faecalis, over 200 µg/mL. The MIC with Klebsiella pneumoniae, with Escherichia coli [5], against Enterococcus faecium and against Staphylococcus aureus was over 200 µg/mL in each case. The pIC50 in assay [3] was 7.66. For the same compound, the inhibition result in [6] was “inactive”.

As for `CC(=O)C1CCC(NC(=O)Nc2ccc(OC(F)(F)F)cc2)CC1` (stereo unspecified), the results for the pIC50 (in assay [7]; at Epoxide hydrolase B) were 7.92 and 4.50, respectively.

In general, IC50 refers to the point on the concentration scale where inhibition reaches its midpoint. Turning to `O=C(Nc1cccc(C(F)(F)F)c1F)NC1CCCCCCC1`, the MIC was over 200 µg/mL in the assay on Pseudomonas aeruginosa; 3.12 µg/mL (≈ 9.39 µM) against Bacillus anthracis; 0.4 µg/mL (≈ 1.2 µM) in assay [1]; 25 µg/mL (≈ 75.2 µM) with Escherichia coli [2]; 0.8 µg/mL (≈ 2.41 µM) in assay [4]; over 200 µg/mL in the assay with Enterococcus faecalis. The MIC with Klebsiella pneumoniae, in the assay with Escherichia coli [5], against Enterococcus faecium and in the assay on Staphylococcus aureus was over 200 µg/mL throughout. Further, the inhibition in assay [8] is 56.3%; in assay [6], 17%. Moreover, the negative logarithm of the IC50 (pIC50) in assay [7] is 9.40. The concentration for half-maximal inhibition (IC50) in the assay with Vero worked out at 25.3 µg/mL (≈ 76.1 µM).

Regarding `CCCOCCNC(=O)NC12CC3CC(CC(C3)C1)C2`, the MIC was over 200 µg/mL with Pseudomonas aeruginosa; over 200 µg/mL against Bacillus anthracis; 200 µg/mL (≈ 713 µM) in [1]; 200 µg/mL (≈ 713 µM) against Escherichia coli [2]; 25 µg/mL (≈ 89.2 µM) in assay [4]; over 200 µg/mL against Enterococcus faecalis. In addition, the MIC with Klebsiella pneumoniae, in the assay with Escherichia coli [5], against Enterococcus faecium and in the assay on Staphylococcus aureus was over 200 µg/mL in each case. Further, the figures for the inhibition in assay [8] and in [6] were 35% and 16.6%, respectively. Moreover, the negative logarithm of the IC50 (pIC50) in assay [7] is 6.62. This compound displayed an IC50 in the assay on Vero of 265 µg/mL (≈ 944 µM).

As to `Cc1c(Cl)cccc1NC(=O)NC1C2CC3CC(C2)CC1C3` (stereo unspecified), the MIC in the assay on Pseudomonas aeruginosa was over 200 µg/mL; against Bacillus anthracis, over 200 µg/mL; in [1] it was over 100 µg/mL; in the assay with Escherichia coli [2] it was over 200 µg/mL; in assay [4], 1.6 µg/mL (≈ 5.02 µM); in the assay on Enterococcus faecalis it was over 200 µg/mL. Moreover, the MIC with Klebsiella pneumoniae, in the assay on Escherichia coli [5], against Enterococcus faecium and against Staphylococcus aureus was over 200 µg/mL in each case. The inhibition in [8] worked out at 58.3%; in assay [6] it was 9.8%. In addition, the negative-log IC50 (pIC50) in assay [7] was 8.35. In addition, in the assay with Vero, the IC50 was 26.4 µg/mL (≈ 82.8 µM).
